Measurements reported in patent publication US20230139171A1 (SITA Information Networking Computing UK Limited, priority 2019, published 2023).

Key:
Assay type in all cases: cell-based
[1] = biological target: T1, human TLR7 (Homo sapiens, UniProt Q9NYK1); test: TLR7 inhibition reporter assay (HEK-Blue cells, SEAP reporter, gardiquimod stimulation); settings: HEK-Blue cells overexpressing human TLR7, SEAP reporter, gardiquimod 7.5 μM; read-out: TLR7 IC50
T1 construct: host or cells: HEK-Blue cells
T1 sequence (Q9NYK1 27-1049): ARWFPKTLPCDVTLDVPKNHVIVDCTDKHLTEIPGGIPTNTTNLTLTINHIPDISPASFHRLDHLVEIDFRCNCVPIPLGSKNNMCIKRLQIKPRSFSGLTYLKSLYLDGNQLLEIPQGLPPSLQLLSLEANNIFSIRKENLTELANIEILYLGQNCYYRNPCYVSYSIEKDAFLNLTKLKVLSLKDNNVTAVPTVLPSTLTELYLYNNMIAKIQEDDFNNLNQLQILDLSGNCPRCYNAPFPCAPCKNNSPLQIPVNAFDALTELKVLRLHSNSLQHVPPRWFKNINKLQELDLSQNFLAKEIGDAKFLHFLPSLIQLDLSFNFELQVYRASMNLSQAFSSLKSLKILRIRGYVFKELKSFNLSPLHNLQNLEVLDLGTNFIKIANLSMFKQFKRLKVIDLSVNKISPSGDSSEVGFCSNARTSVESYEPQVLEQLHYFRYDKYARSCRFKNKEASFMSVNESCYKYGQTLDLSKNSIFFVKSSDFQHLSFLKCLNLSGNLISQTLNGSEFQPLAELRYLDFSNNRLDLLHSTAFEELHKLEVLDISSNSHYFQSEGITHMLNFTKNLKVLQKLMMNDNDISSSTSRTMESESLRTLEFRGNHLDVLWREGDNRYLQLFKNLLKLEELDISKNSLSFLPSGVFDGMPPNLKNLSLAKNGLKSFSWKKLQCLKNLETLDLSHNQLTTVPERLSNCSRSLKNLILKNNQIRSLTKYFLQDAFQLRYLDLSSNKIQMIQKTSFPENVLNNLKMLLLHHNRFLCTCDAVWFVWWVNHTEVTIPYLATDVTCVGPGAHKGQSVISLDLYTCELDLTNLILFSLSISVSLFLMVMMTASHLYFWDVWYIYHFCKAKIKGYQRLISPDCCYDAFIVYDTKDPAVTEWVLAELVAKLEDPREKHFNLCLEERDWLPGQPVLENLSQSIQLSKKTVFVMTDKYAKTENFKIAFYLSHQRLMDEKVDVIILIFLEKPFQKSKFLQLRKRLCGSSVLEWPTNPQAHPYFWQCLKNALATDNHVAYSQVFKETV
Method in brief: (§1)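 HEK-Blue cells overexpressing human TLR7, TLR8 or TLR9 carry a SEAP reporter driven by NF-κB/AP-1 sites. Compounds (0.05 nM–50 μM) were preincubated 30 min at room temperature, then cells were stimulated with gardiquimod 7.5 μM (TLR7), R848 15.9 μM (TLR8) or ODN2006 5 nM (TLR9) for 22 h at 37 °C.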

[2] = biological target: T2, human TLR9 (Homo sapiens, UniProt Q9NR96); test: TLR9 inhibition reporter assay (HEK-Blue cells, SEAP reporter, ODN2006 stimulation); settings: HEK-Blue cells overexpressing human TLR9, SEAP reporter, ODN2006 5 nM
T2 construct: host or cells: HEK-Blue cells
T2 sequence (Q9NR96 26-1032): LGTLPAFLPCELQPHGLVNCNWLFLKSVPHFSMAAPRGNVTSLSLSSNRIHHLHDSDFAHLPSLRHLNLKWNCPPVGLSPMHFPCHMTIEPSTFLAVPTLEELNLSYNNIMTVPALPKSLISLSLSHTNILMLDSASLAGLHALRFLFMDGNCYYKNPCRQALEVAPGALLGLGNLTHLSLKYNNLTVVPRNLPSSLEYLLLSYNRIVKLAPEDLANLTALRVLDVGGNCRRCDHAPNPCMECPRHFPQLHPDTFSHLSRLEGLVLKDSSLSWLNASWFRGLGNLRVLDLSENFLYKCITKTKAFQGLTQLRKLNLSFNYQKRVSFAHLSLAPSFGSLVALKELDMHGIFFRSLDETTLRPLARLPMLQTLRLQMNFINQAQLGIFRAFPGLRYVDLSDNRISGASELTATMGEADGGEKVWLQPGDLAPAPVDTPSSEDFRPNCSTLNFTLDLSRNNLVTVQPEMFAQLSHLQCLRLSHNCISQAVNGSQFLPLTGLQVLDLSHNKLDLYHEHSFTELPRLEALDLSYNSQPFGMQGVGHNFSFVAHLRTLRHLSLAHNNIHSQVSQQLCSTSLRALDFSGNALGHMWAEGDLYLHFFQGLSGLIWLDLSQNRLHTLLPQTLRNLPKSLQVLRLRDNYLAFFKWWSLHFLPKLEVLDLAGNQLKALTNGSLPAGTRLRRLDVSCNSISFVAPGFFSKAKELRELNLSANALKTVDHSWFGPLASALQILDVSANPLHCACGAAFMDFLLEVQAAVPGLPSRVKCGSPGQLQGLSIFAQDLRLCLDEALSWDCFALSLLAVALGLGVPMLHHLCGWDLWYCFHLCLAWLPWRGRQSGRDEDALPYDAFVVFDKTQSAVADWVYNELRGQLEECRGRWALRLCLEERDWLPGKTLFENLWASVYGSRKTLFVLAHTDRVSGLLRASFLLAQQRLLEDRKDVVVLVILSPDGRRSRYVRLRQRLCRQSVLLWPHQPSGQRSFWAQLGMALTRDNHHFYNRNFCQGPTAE
Method in brief: as §1

[3] = biological target: T3, human TLR8 (Homo sapiens, UniProt Q9NR97); test: TLR8 inhibition reporter assay (HEK-Blue cells, SEAP reporter, R848 stimulation); settings: HEK-Blue cells overexpressing human TLR8, SEAP reporter, R848 15.9 μM; read-out: TLR8 IC50
T3 construct: host or cells: HEK-Blue cells
T3 sequence (Q9NR97 27-1041): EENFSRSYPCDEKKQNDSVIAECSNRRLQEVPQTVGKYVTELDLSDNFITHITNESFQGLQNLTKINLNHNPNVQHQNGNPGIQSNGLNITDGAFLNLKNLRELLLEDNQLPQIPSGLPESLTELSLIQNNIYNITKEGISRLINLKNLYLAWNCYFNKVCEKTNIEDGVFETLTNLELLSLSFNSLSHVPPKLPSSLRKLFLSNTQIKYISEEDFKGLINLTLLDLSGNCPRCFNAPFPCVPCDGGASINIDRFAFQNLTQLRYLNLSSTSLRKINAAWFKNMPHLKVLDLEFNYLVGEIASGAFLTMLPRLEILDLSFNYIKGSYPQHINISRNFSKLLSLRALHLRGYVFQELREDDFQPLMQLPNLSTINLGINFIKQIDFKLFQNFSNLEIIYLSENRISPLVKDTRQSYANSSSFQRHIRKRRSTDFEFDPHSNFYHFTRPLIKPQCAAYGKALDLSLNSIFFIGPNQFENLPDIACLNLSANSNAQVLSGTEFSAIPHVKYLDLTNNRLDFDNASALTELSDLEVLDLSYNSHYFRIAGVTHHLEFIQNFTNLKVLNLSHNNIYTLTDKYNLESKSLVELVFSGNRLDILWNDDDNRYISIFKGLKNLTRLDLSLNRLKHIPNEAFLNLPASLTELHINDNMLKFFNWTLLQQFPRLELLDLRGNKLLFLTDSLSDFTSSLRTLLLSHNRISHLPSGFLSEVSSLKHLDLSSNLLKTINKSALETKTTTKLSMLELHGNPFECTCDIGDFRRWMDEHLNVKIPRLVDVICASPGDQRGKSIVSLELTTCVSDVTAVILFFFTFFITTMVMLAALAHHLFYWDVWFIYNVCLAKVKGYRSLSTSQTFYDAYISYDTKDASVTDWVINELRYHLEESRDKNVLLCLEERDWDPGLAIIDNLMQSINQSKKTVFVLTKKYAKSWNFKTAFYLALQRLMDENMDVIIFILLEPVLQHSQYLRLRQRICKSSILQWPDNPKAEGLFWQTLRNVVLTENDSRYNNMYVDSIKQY
Method in brief: as §1

| Structure (SMILES) | IC50 [1] [nM] | IC50 [2] [nM] | IC50 [3] [nM] |
| --- | --- | --- | --- |
| COc1cc(-c2[nH]c3sc(C4CCC(NC56CC(C5)C6)CC4)nc3c2C(C)C)cn2ncnc12 (single isomer, unassigned) [Example 169, N-(4-(6-isopropyl-5-(8-methoxy-[1,2,4]triazolo[1,5-a]pyridin-6-yl)-4H-pyrrolo[3,2-d]thiazol-2-yl)cyclohexyl)bicyclo[1.1.1]pentan-1-amine] | 4.17 | 9810 | 17 |
| CNCCNC1CCC(c2nc3c(C(C)C)c(-c4cc(OC)c5ncnn5c4)[nH]c3s2)CC1 (single isomer, unassigned) [Example 170, N1-(4-(6-isopropyl-5-(8-methoxy-[1,2,4]triazolo[1,5-a]pyridin-6-yl)-4H-pyrrolo[3,2-d]thiazol-2-yl)cyclohexyl)-N2-methylethane-1,2-diamine] | 2.38 | 1760 | 4.65 |
| CNCCNC1CCC(c2nc3c(C(C)C)c(-c4cc(OC)c5ncnn5c4)[nH]c3s2)CC1 (single isomer, unassigned) [Example 171, N1-(4-(6-isopropyl-5-(8-methoxy-[1,2,4]triazolo[1,5-a]pyridin-6-yl)-4H-pyrrolo[3,2-d]thiazol-2-yl)cyclohexyl)-N2-methylethane-1,2-diamine] | 0.78 | 879 | 2.21 |
| CC(C)c1c(-c2cn(C)c3ncccc23)[nH]c2sc(C3CCC(NCC4(C)COC4)CC3)nc12 (single isomer, unassigned) [Example 172, 4-(6-isopropyl-5-(1-methyl-1H-pyrrolo[2,3-b]pyridin-3-yl)-4H-pyrrolo[3,2-d]thiazol-2-yl)-N-((3-methyloxetan-3-yl)methyl)cyclohexan-1-amine] | 2.84 | 14800 | 1.22 |
| CC(C)c1c(-c2cn(C)c3ncccc23)[nH]c2sc(C3CCC(NCC4(C)COC4)CC3)nc12 (single isomer, unassigned) [Example 173, 4-(6-isopropyl-5-(1-methyl-1H-pyrrolo[2,3-b]pyridin-3-yl)-4H-pyrrolo[3,2-d]thiazol-2-yl)-N-((3-methyloxetan-3-yl)methyl)cyclohexan-1-amine] | 8.56 | 7790 | 7.58 |
| CCN(C)C1CCC(c2nc3c(C(C)C)c(-c4cn(C)c5ncccc45)[nH]c3s2)CC1 (single isomer, unassigned) [Example 174, N-ethyl-4-(6-isopropyl-5-(1-methyl-1H-pyrrolo[2,3-b]pyridin-3-yl)-4H-pyrrolo[3,2-d]thiazol-2-yl)-N-methylcyclohexan-1-amine] | 1.84 | 16000 | 3.13 |
| CCN(C)C1CCC(c2nc3c(C(C)C)c(-c4cn(C)c5ncccc45)[nH]c3s2)CC1 (single isomer, unassigned) [Example 175, N-ethyl-4-(6-isopropyl-5-(1-methyl-1H-pyrrolo[2,3-b]pyridin-3-yl)-4H-pyrrolo[3,2-d]thiazol-2-yl)-N-methylcyclohexan-1-amine] | 3.76 | 6250 | 6.23 |
| CC(C)c1c(-c2cn(C)c3ncccc23)[nH]c2sc(C3CCC(NC45CC(C4)C5)CC3)nc12 (single isomer, unassigned) [Example 176, N-(4-(6-isopropyl-5-(1-methyl-1H-pyrrolo[2,3-b]pyridin-3-yl)-4H-pyrrolo[3,2-d]thiazol-2-yl)cyclohexyl)bicyclo[1.1.1]pentan-1-amine] | 23.3 | 9580 | 23.7 |
| CC(C)c1c(-c2cn(C)c3ncccc23)[nH]c2sc(C3CCC(NC45CC(C4)C5)CC3)nc12 (single isomer, unassigned) [Example 177, N-(4-(6-isopropyl-5-(1-methyl-1H-pyrrolo[2,3-b]pyridin-3-yl)-4H-pyrrolo[3,2-d]thiazol-2-yl)cyclohexyl)bicyclo[1.1.1]pentan-1-amine] | 3.23 | 9790 | 5.63 |
